According to article PMC5329948, “Caspase vinyl sulfone small molecule inhibitors prevent axonal degeneration in human neurons and reverse cognitive impairment in Caspase-6-overexpressing mice” (Molecular Neurodegeneration, 2017):

What was measured:
[1] = target: T1, recombinant Caspase-3 (Homo sapiens, UniProt P42574); experiment: Caspase Inhibitor Drug Screening Kit (BioVision), DEVD-AFC substrate; assay type: biochemical; conditions: not active site titrated
T1 construct: purchased BioVision
Protocol: (§1) The half-maximal inhibitory concentrations (IC50) for NWL inhibitors (Patent publication # WO/2009/140765, WO/2010/133000, and WO/2012/140500) was determined by incubating 0 to 20 μM NWL-117 and NWL-154 with 20 nM of active site-titrated Casp6 in SB at room temperature for 5 minutes. Then, 10 μM Ac-VEID-AFC was added and fluorescence measured for 20 min at 37 °C as described above. New World Laboratories performed the IC50 determination for NWL inhibitors dissolved in dimethyl sulfoxide (DMSO) against recombinant Casp1-10 using the Caspase Inhibitor Drug Screening Kits (BioVision, San Francisco, CA) following the manufacturer’s instructions and the preferred substrates for the caspases (Caspase-1: WAD-AFC, Caspase-2: VDVAD-AFC, Caspase-3: DEVD-AFC, Caspase-4: LEVD-AFC, Caspase-5: WEHD-AFC, Casp6:VEID-AFC, Caspase-7: DEVD-AFC, Caspase-8: IETD-AFC, Caspase-9: LEHD-AFC, Caspase-10: AEVD-AFC). In transfected HCT116 cells, 0 to 100 μM NWL inhibitors were added in the culture media and left on the cells for 2 h. Cells were washed once with 1 mL ice-cold PBS, incubated on ice for 5 min with 200 μL cell lysis buffer (CLB) (50 mM HEPES, 0.1% CHAPS, 0.1 mM EDTA), and gently scraped off. Protein concentrations were determined by Bradford assay (BioRad, Mississauga, ON, CA) by measuring the absorbance at 595 nm using the BioTek Synergy H4 plate reader. Caspase-6 activity was measured in 40–60 μg total protein as described above. The IC50 for recombinant and cellular caspases were determined using GraphPad Prism 5.0 (La Jolla, CA, USA) using a log (inhibitor) – response curve with a Hill slope of −1.

[2] = target: T2, recombinant Caspase-7 (Homo sapiens, UniProt P55210); experiment: as above; assay type: biochemical; conditions: not active site titrated
T2 construct: purchased BioVision
Protocol: as §1

[3] = target: T3, recombinant Caspase-5 (Homo sapiens, UniProt P51878); experiment: Caspase Inhibitor Drug Screening Kit (BioVision), WEHD-AFC substrate; assay type: biochemical; conditions: not active site titrated
T3 construct: purchased BioVision
Protocol: as §1, with “Caspase-6 activity was measured in 40–60 μg total protein as described above. The IC50 for recombinant and cellular caspases were determined using GraphPad Prism 5.0 (La Jolla, CA, USA) using a log (inhibitor) – response curve with a Hill slope of −1.” left out

[4] = target: T4, recombinant Caspase-10 (Homo sapiens, UniProt Q92851); experiment: Caspase Inhibitor Drug Screening Kit (BioVision), AEVD-AFC substrate; assay type: biochemical; conditions: not active site titrated
T4 construct: purchased BioVision
Protocol: as §1, with “Caspase-6 activity was measured in 40–60 μg total protein as described above. The IC50 for recombinant and cellular caspases were determined using GraphPad Prism 5.0 (La Jolla, CA, USA) using a log (inhibitor) – response curve with a Hill slope of −1.” left out

[5] = test system: HCT116 cells; experiment: Cellular toxicity in HCT116 cells (phase contrast, MTT, LDH, sub-G1); assay type: cell-based, human; conditions: for cell morphology (phase contrast) / lactate dehydrogenase (LDH) release / sub-G1 levels of DNA: HCT116, 100 μM, 24 h; for mitochondrial reductive potential (MTT): HCT116, 20, 50 or 100 μM, 24 or 48 h
Protocol: (§2) Immunofluorescence on human neuron cultures: Primary human neurons were pre-treated 2 h and serum-deprived in the presence of 100 μM NWL-117, 100 μM NWL-154, or 5 μM Z-VEID-fmk (Biomol, Plymouth meeting, PA, USA) for 24 h. Following treatment, human neurons were washed once with warm PBS, fixed for 20 min at room temperature with 4% paraformaldehyde (Sigma, Oakville, ON, CA)/4% sucrose (BioRad, Mississauga, ON, CA) for TubΔCasp6 or 2% formaldehyde (Thermo Fisher Scientific, Waltham, MA, USA)/0.2% glutaraldehyde (Sigma, Oakville, ON, CA) for pBudEGFP or pBudEGFP/APP^WT-transfected neurons, incubated in permeabilization buffer (0.1% Triton X-100, 0.1 sodium citrate) for 1 min on ice, washed with PBS, blocked for 20 min at room temperature with 10% goat serum (Sigma, Oakville, ON, CA), and incubated with primary antibodies diluted in 10% goat serum in PBS overnight at 4 °C in a humid chamber. The glass coverslips were washed with PBS, and incubated with goat anti-rabbit secondary antibody coupled to Alexa 488 (Molecular Probes, Eugene, OR, USA) or Cy3 (GE Healthcare Life Sciences, Baie D’Urfe, QC, CA) and Hoechst 33342 (ImmunoChemistry, Bloomington, MN, USA) at 1 μg/mL for 2 h at room temperature. The coverslips were washed with PBS and rinsed in Milli-Q water before mounting in fluoromount (Dako, Burlington, ON, CA). Images were acquired by fluorescence microscopy and quantified using the ImageJ software (NIH, Bethesda, MD, USA) for TubΔCasp6 and manually counted for transfected EGFP(+)-neurons. Time lapse-imaging by live fluorescence microscopy: Primary human neurons were transfected with gold beads coated with pBudEGFP or pBudEGFP/APP^WT using a Helios Gene gun (BioRad, Mississauga, ON, CA). Briefly, cells were pre-treated with 100 μM NWL inhibitors or 5 μM Z-VEID-fmk for 2 h. The media was removed and the neurons were shot at 100 psi. The media was quickly replaced with the inhibitors present. The plasmid was expressed for 16 h before setting up the fluorescence microscope (Nikon Eclipse Ti) to acquire 20 images per condition every hour for 72 h at 37 °C with 5% CO2. The images were analyzed by counting the total number of neurons (50–100 neurons per condition per independent experiment), and the number of beaded, swollen soma, and healthy neurons. In addition, the time at which cells beaded was noted. Phase contrast microscopy: HCT116 cells, plated at a density of 1×10^5 cells/well and human neurons, plated at a density of 6×10^6 cells/well on poly-L-lysine were treated with PBS, 100 μM NWL-117, 100 μM NWL-154, or 2 μM staurosporine (Biomol, Plymouth meeting, PA, USA) for 24 h. Images were acquired with the Nikon Eclipse Ti microscope and the NIS-Elements (Version 3.10) software.
MTT assay: HCT116 cells or primary human neurons were seeded in 96-well plates at a density of 1x10^4 and 1x10^5 cells per well, respectively. The next day, cells and neurons were treated with vehicle (PBS), or 20, 50, or 100 μM of NWL-117, NWL-154, or 2 μM staurosporine for 24 or 48 h. The media was replaced with […] MTT (3-(4,5-dimethylthiazol-2-yl)-2,5-diphenyltetrazolium bromide) (Sigma-Aldrich, Oakville, ON, CA) and the cells were incubated for 4 h at 37 °C in 5% CO2. The media was removed before dissolving the formazan crystals in 100 μL DMSO while shaking for 30 min. Once dissolved, the absorbance of each sample was measured at 560 nm and 670 nm using the Synergy H4 plate reader from BioTek (Winooski, VT, USA). LDH Assay: HCT116 cells were seeded in a 6-well plate at a density of 1×10^5 cells/well and treated the following day with 100 μM NWL-117 or −154 or equal volumes of vehicle (PBS) for 24 h. As a positive control, some cells were lysed for 2 h in 0.9% Triton X-100 (BioShop Canada Inc, Burlington, Ontario, CA). Media was collected and stored at −20 °C or assayed right away using the Cytotox 96 kit (Promega, Madison, WI, USA) following the manufacturer’s protocol. […]

[6] = test system: APPWT-transfected primary human CNS neurons; experiment: Neuritic beading/degeneration in APPWT-transfected primary human neurons; assay type: cell-based; conditions: for neuritic beading: APPWT/EGFP co-expression, 48 h; for neuritic beading / percentage of beaded neurons, fold of EGFP-alone: NWL 100 μM, Z-VEID-fmk 5 μM; for percentage of beaded neurons, fold of EGFP-alone: live imaging 72 h, APPWT vehicle 1.52, EGFP-alone 1.00, mean ± SEM
Protocol: as §2

[7] = APPWT-transfected neurons, live imaging, 100 μM

T3 sequence (P51878 137-434): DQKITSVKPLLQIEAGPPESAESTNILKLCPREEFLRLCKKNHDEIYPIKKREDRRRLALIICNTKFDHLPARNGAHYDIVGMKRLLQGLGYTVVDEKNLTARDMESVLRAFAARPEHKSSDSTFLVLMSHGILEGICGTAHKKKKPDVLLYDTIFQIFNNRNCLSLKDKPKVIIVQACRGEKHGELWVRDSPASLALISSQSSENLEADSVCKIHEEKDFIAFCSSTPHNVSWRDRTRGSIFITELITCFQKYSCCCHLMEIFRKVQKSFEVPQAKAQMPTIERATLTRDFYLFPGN
T2 sequence (P55210 whole entry): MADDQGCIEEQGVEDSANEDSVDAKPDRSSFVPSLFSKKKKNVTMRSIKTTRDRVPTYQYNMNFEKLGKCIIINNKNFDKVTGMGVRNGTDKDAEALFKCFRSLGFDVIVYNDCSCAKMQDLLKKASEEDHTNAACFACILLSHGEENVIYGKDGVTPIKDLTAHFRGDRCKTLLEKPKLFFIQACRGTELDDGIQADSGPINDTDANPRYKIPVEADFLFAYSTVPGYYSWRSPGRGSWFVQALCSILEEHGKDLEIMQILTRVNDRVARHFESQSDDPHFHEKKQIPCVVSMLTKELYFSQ
T4 sequence (Q92851 220-521): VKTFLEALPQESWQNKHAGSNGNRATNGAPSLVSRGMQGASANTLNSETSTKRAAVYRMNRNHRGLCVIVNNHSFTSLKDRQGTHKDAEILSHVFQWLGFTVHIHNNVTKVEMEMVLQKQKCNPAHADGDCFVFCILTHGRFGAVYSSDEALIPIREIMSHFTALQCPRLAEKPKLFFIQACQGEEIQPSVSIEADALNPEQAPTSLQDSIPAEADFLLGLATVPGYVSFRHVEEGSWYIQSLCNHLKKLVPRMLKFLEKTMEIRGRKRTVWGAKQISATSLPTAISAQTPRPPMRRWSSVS
T1 sequence (P42574 29-277): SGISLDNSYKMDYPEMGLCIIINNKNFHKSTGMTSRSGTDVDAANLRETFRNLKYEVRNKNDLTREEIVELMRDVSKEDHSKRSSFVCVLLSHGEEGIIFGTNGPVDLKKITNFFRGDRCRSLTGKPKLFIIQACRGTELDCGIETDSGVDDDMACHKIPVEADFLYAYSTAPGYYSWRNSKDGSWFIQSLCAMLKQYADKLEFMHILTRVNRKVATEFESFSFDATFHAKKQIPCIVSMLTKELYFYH

Compound | IC50 [1] | IC50 [2] | IC50 [3] | IC50 [4] | cell morphology (phase contrast) [5] | lactate dehydrogenase (LDH) release [5] | sub-G1 levels of DNA [5] | mitochondrial reductive potential (MTT) [5] | neuronal soma rounding [6, 7] | neuronal survival (neurons with homogeneously distributed EGFP) [6, 7] | neuritic beading [6] | percentage of beaded neurons, fold of EGFP-alone [6]
CCC(C)[C@H](NC(=O)[C@H](CCC(=O)O)NC(=O)[C@@H](NC(=O)OCc1ccccc1)C(C)C)C(=O)N[C@H](/C=C/S(C)(=O)=O)CC(=O)O (stereo partly shown) [NWL-117] | 6.96 µM | > 100 µM | 19.5 µM | 0.13 µM | morphologically normal | did not release lactase dehydrogenase | nor did the cells show increased sub-G1 levels | comparable to vehicle-treated cells | inhibited | significantly increases neuronal survival | prevented neuritic beading | 0.84 fold
CCC(C)[C@H](NC(=O)[C@H](CCC(=O)O)NC(=O)[C@@H](NC(=O)OCc1ccccc1)C(C)C)C(=O)N[C@H](/C=C(\Cl)S(C)(=O)=O)CC(=O)O (stereo partly shown) [NWL-154] | 1.34 µM | > 100 µM | 4.19 µM | 0.19 µM | morphologically normal | did not release lactase dehydrogenase | nor did the cells show increased sub-G1 levels | comparable to vehicle-treated cells | – | – | prevented neuritic beading | 1.07 fold
